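Compound exposure: 48 hours, 5 concentrations, 96-well plates. GI50: concentration for 50% inhibition of growth.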 Activity calls are given as the source filed them. Cut-off read from the data, not from the text of the source: active = GI50 up to about 1.1 µM and inactive = higher.

Holding throughout (assay): DTP human tumour cell line panel, 48 h
Experiment [1] concerns K562.
Experiment [2] deals with HOP-92.
Experiment [3] has as its system SR.
For experiment [4], the system named is HCT-15.
In experiment [5] the test system is SK-MEL-28.
In experiment [6] the test system is KM12.
Experiment [7] concerns OVCAR-8.
Experiment [8] deals with SF-539.
Experiment [9] deals with NCI/ADR-RES.
Experiment [10] has as its system M14.
For experiment [11], the system named is NCI-H522.
Experiment [12] concerns SK-MEL-5.
Experiment [13] deals with A498.
The test system of experiment [14] is DU-145.
The subject of experiment [15] is SW-620.
Experiment [16] deals with MDA-MB-231.
Experiment [17] relates to Hs-578T.
The test system of experiment [18] is HT-29.
The test system of experiment [19] is COLO 205.
Experiment [20] concerns SNB-75.

One may read the GI50 as the concentration giving 50% growth inhibition. `Cc1ccc2c(C(=O)c3c(C)n(CCN4CCOCC4)c4ccccc34)cccc2c1`: the GI50 in experiment [1] was 1.36 µM (inactive); in experiment [2], 19.1 µM (inactive); in experiment [3], 6.43 µM (inactive); in experiment [4], 9.35 µM; in [5] it was 1.36 µM (inactive); in experiment [6] it was 16.3 µM (inactive). The GI50 in [7] is 10.8 µM (inactive); in [8], 0.156 µM (active); in experiment [9] it was 12.4 µM (inactive); in experiment [10] it was 16.3 µM (inactive); in [11], 10.6 µM (inactive); in experiment [12], 0.581 µM (active). Further, the GI50 in [13] was 28.6 µM (inactive); in experiment [14], 27.5 µM (inactive); in experiment [15] it was 0.685 µM (active); in experiment [16], 17.3 µM (inactive); in [17] it was 4.14 µM (inactive); in [18], 11.2 µM (inactive).

For `Cc1ccc(C(=O)OCC(C)C)cc1/N=N/N(C)C`, the GI50 was > 100 µM (inactive) in experiment [1]; > 65 µM (inactive) in experiment [2]; 70.5 µM (inactive) in experiment [3]; 48.1 µM in experiment [4]; > 71 µM (inactive) in [5]; 38.8 µM (inactive) in experiment [6]. The GI50 in experiment [7] was > 100 µM (inactive); in experiment [8], > 86.7 µM (inactive); in experiment [9] it was 97.1 µM (inactive); in experiment [10], 67 µM (inactive); in experiment [11], 35.2 µM (inactive); in experiment [12] it was > 60.4 µM (inactive). The GI50 in experiment [19] was > 100 µM (inactive); in experiment [14], > 100 µM (inactive); in experiment [15] it was > 100 µM (inactive); in [16] it was > 100 µM (inactive); in experiment [17], > 100 µM (inactive); in experiment [18], 16.1 µM (inactive).

With `CCCCSC1=N/C(=C\c2ccc(N(C)C)cc2)C(=O)N1`, the GI50 in [20] is 35.5 µM (inactive); in experiment [1] it was 44.8 µM (inactive); in experiment [2], 27.3 µM (inactive); in [4], 53.5 µM; in experiment [5], 61.9 µM (inactive); in [6], 18 µM (inactive). For the same molecule, the GI50 is 54.1 µM (inactive) in experiment [7]; 24.5 µM (inactive) in experiment [8]; 82.6 µM (inactive) in experiment [9]; 38.9 µM (inactive) in experiment [10]; 21.7 µM (inactive) in experiment [11]; 50.5 µM (inactive) in experiment [12]. The GI50 in [13] was 13.9 µM (inactive); in [19], 35.5 µM (inactive); in experiment [14], 60.1 µM (inactive); in [15] it was 48.2 µM (inactive); in experiment [16], 24 µM (inactive); in experiment [17] it was 25.2 µM (inactive). In addition, in experiment [18], the GI50 is 11.9 µM (inactive).

Regarding `Nc1n[n+]2cc(-c3ccccc3)n(CC(=O)c3ccccc3)c2s1`, the GI50 in experiment [1] is 29.7 µM (inactive); in experiment [2], 14.1 µM (inactive); in [3] it was 18.4 µM (inactive); in [4] it was 44.7 µM; in experiment [6], 19.8 µM (inactive); in [7], 52 µM (inactive). The GI50 in experiment [8] is 20.1 µM (inactive); in experiment [9], > 100 µM (inactive); in experiment [10], 21.3 µM (inactive); in experiment [11] it was 13.3 µM (inactive); in [12], 23.1 µM (inactive); in [13] it was > 100 µM (inactive). Also, the GI50 in experiment [19] was 15.3 µM (inactive); in [14], 50.9 µM (inactive); in experiment [15], 23.2 µM (inactive); in experiment [16] it was 29.5 µM (inactive); in experiment [17], 17 µM (inactive); in experiment [18] it was 27.2 µM (inactive).

In the case of `c1ccc2c(c1)Nc1nc3nonc3nc1N2`, the GI50 in experiment [1] is > 100 µM (inactive); in experiment [2] it was > 100 µM (inactive); in experiment [3] it was > 100 µM (inactive); in experiment [4], 29.4 µM; in experiment [5], > 100 µM (inactive); in experiment [6], > 100 µM (inactive). Also, the GI50 in [7], in experiment [9], in [10], in experiment [11], in experiment [12] and in [13] was > 100 µM (inactive) throughout. Further, the GI50 in [19], in [14], in [15], in experiment [16], in experiment [17] and in experiment [18] was > 100 µM (inactive) throughout.

As for `N#Cc1c(N)[nH]c(=S)c(C#N)c1-c1cccc(Cl)c1`, the GI50 is 26.2 µM (inactive) in experiment [1]; 24.4 µM (inactive) in experiment [2]; 18.6 µM (inactive) in experiment [3]; 41.1 µM in experiment [4]; 39.6 µM (inactive) in experiment [5]; 43.3 µM (inactive) in experiment [6]. Besides, the GI50 in experiment [7] is 30.1 µM (inactive); in [8], 49.2 µM (inactive); in [9], 67.1 µM (inactive); in [10], 36.5 µM (inactive); in experiment [11], 18.9 µM (inactive); in experiment [12], 20.2 µM (inactive). In addition, the GI50 in experiment [13] is 30.1 µM (inactive); in [19], 15.2 µM (inactive); in [14], 33.3 µM (inactive); in experiment [15], 24.4 µM (inactive); in [16], 29.4 µM (inactive); in experiment [17] it was 26.7 µM (inactive). Besides, in experiment [18], the GI50 is 34.2 µM (inactive).

Consider `Cc1ccc(/C(Cl)=C/C=C(C#N)C#N)cc1`, for which the GI50 is 13.2 µM (inactive) in [20]; 0.817 µM (active) in experiment [1]; 3.26 µM (inactive) in experiment [2]; 1.37 µM (inactive) in experiment [3]; 2.1 µM in experiment [4]; 2.14 µM (inactive) in [5]. Moreover, the GI50 in experiment [6] was 5.22 µM (inactive); in experiment [7], 3.16 µM (inactive); in [8], 2.64 µM (inactive); in experiment [9], 2.18 µM (inactive); in experiment [10], 2.51 µM (inactive); in experiment [11], 1.98 µM (inactive). Besides, the GI50 in [12] was 1.8 µM (inactive); in [19], 3.31 µM (inactive); in experiment [14], 11.3 µM (inactive); in experiment [15], 1.91 µM (inactive); in experiment [16], 2.64 µM (inactive); in experiment [17], 2.16 µM (inactive). The GI50 in experiment [18] was 2.59 µM (inactive).

In the case of `COc1ccc(N2C(=O)c3cc(C)cnc3S2(=O)=O)cc1`, the GI50 in [20] was > 100 µM (inactive); in [1], > 100 µM (inactive); in experiment [2], > 100 µM (inactive); in experiment [3], > 100 µM (inactive); in experiment [4] it was greater than 100 µM; in experiment [5] it was > 100 µM (inactive). Further, the GI50 in [6], in experiment [7], in experiment [9], in experiment [11], in experiment [12] and in experiment [19] was > 100 µM (inactive) each time. The GI50 in [14], in experiment [15], in experiment [16], in experiment [17] and in experiment [18] was > 100 µM (inactive) in each case.

On to `O=C(ON=c1c2ccccc2ccc2ccccc12)c1cc([N+](=O)[O-])cc([N+](=O)[O-])c1`, for which the GI50 is 40.8 µM (inactive) in experiment [20]; 21.8 µM (inactive) in experiment [1]; 23.1 µM (inactive) in [2]; 35.2 µM (inactive) in [3]; 53 µM in experiment [4]; > 100 µM (inactive) in experiment [5]. The GI50 was 49 µM (inactive) in [6]; 94.8 µM (inactive) in experiment [7]; > 100 µM (inactive) in [8]; 48.4 µM (inactive) in experiment [9]; > 100 µM (inactive) in experiment [10]; 50.5 µM (inactive) in [12]. In addition, the GI50 in experiment [19] is > 100 µM (inactive); in experiment [14], 97.3 µM (inactive); in experiment [15], > 100 µM (inactive); in [16], > 100 µM (inactive); in experiment [17], 76.7 µM (inactive); in [18] it was 94.4 µM (inactive).

With `O=C(CNCc1ccccc1)Oc1c(Cl)c(Cl)c(Cl)c(Cl)c1Cl`, the GI50 in experiment [20] is 33.6 µM (inactive); in [1], 34.8 µM (inactive); in experiment [3], 21.8 µM (inactive); in experiment [4] it was 25.4 µM; in experiment [5], 38.5 µM (inactive); in experiment [6] it was 21.8 µM (inactive). The GI50 in [7] is 21.4 µM (inactive); in experiment [8] it was 32.3 µM (inactive); in [9], 33.7 µM (inactive); in experiment [10], 77.8 µM (inactive); in experiment [11] it was 25.3 µM (inactive); in experiment [19], 25 µM (inactive). Moreover, the GI50 was 15.9 µM (inactive) in [14]; 32.5 µM (inactive) in [15]; 25.4 µM (inactive) in [16]; 17.3 µM (inactive) in [17]; 32.7 µM (inactive) in experiment [18].

As for `Cc1occc(=O)c1O` [MALTOL], the GI50 in experiment [20] was > 100 µM (inactive); in experiment [1] it was > 100 µM (inactive); in experiment [2], > 100 µM (inactive); in experiment [3], > 100 µM (inactive); in [4], 4.25 µM; in experiment [5] it was > 100 µM (inactive). In addition, the GI50 in experiment [6], in experiment [7], in experiment [8], in experiment [9], in [10] and in [11] was > 100 µM (inactive) throughout. Also, the GI50 in [12] was > 100 µM (inactive); in experiment [19] it was > 100 µM (inactive); in experiment [14] it was > 100 µM (inactive); in experiment [15], > 100 µM (inactive); in experiment [16], 3.84 µM (inactive); in experiment [17], > 100 µM (inactive). In addition, the GI50 in experiment [18] is > 100 µM (inactive).

For the origin of these results see ChEMBL document CHEMBL1201862, “PubChem BioAssay data set” (2004).
